Laboratory results published in US11766470B2, “Manufacture, formulation and dosing of apraglutide” (VectivBio AG, priority 2020, dated 2023).
Values joined by “and” are separate entries in the source; they are usually repeats but may differ in a detail not shown here. Identical values can stand only once. Square brackets hold non-standard residues; d marks the D form. Peptide text beside a SMILES is read from it. ξ: configuration not given here. Ile(3ξ) = CCC(C)[C@H](N)C(=O)O; Thr(3ξ) = CC(O)[C@H](N)C(=O)O; Nle = CCCC[C@H](N)C(=O)O

System: healthy adult volunteers
Assay: Multiple dose study in healthy volunteers (Examples 4 and 7), pharmacodynamics: plasma citrulline, Bristol stool scale, body weight
Format: in vivo, human
Description: The endogenous marker citrulline was selected to assess the pharmacodynamic effect of apraglutide. Citrulline was detected in all baseline and post-dose samples. Three baseline citrulline samples were obtained during two baseline visits between screening and the first dosing day and before dosing on the first dosing day. […] At baseline, the mean citrulline range was 5.3825-5.6207 μg/mL for placebo, 5.3900-6.2028 μg/mL for 1 mg apraglutide, 4.8983-5.3023 μg/mL for 5 mg apraglutide and 5.0730-5.4690 μg/mL for 10 mg apraglutide. In the placebo group, the mean citrulline concentration remained relatively stable over the trial, ranging from 4.9735 to 5.8253 μg/mL.
In short, the first contrast tested compared the mean Rpre-dose at the first time point (week 1) to the pooled mean Rpre-dose over all remaining time points (week 2 to 6). The second contrast compared the mean at week 2 to the pooled mean over week 3 to 6, etc. Testing continued until the contrast was not statistically significant. The mean Rpre-dose at week 6 for 10 mg against mean Rpre-dose over week 5 (0.8720, 95% CI: 0.1590; 1.5850 and p=0.0172) was statistically significant.
Besides citrulline, the Bristol stool scale and body weight were assessed as pharmacodynamic endpoints. In contrast to citrulline and weight, the Bristol stool scale is a discrete variable. Subjects assessed their stool in the past 24 hours using the Bristol stool scale ranging from constipation (type 1) to diarrhea (type 7). No stool in the past 24 hours was recorded as zero. As two subjects (assigned to either 1 or 5 mg) reported no stool preceding the first dose, the screening Bristol stool scale score was also taken into account when determining the baseline Bristol stool scale score.
Citrulline, BSS and weight data are analyzed with a mixed model analysis of variance with fixed factors treatment, time and treatment by time, random factor subject, and the average prevalue as covariate. The average pre-value was calculated from all pre-values after screening and before dosing, except for BSS, where the screening value was also used to calculate the average baseline.
For all pharmacodynamic endpoints (citrulline, Bristol stool scale and weight), the pre-value has been used as covariate. The average pre-value was calculated from all pre-values after screening and before dosing, except for the Bristol stool scale, where the screening value was also used to calculate the average baseline. The average pre-value of citrulline was also used as covariate in the MCP-MOD, except in the Sigmoid Emax model. This was addressed by subtracting the pre-value times the slope of the linear model of the MCP part from the values of week 6.

[1] = 1 mg, over the whole trial period
[2] = 5 mg, over the whole trial period
[3] = 10 mg, over the whole trial period (N = 5)

CCCC[C@H](NC(=O)[C@H](CCC(=O)O)NC(=O)[C@H](CC(=O)O)NC(=O)[C@H](CO)NC(=O)[C@H](Cc1ccccc1)NC(=O)[C@H](CO)NC(=O)CNC(=O)[C@H](CC(=O)O)NC(=O)CNC(=O)[C@@H](N)Cc1c[nH]cn1)C(=O)N[C@H](Cc1ccccc1)C(=O)N[C@H](C(=O)N[C@H](C(=O)N[C@@H](CC(C)C)C(=O)N[C@@H](CC(=O)O)C(=O)N[C@@H](CC(C)C)C(=O)N[C@@H](CC(C)C)C(=O)N[C@@H](C)C(=O)N[C@@H](C)C(=O)N[C@@H](CCCNC(=N)N)C(=O)N[C@@H](CC(=O)O)C(=O)N[C@@H](Cc1ccccc1)C(=O)N[C@H](C(=O)N[C@@H](CC(N)=O)C(=O)N[C@@H](Cc1c[nH]c2ccccc12)C(=O)N[C@@H](CC(C)C)C(=O)N[C@H](C(=O)N[C@@H](CCC(N)=O)C(=O)N[C@H](C(=O)N[C@@H](CCCCN)C(=O)N[C@H](C(=O)N[C@H](C(=O)N[C@@H](CC(=O)O)C(N)=O)C(C)O)C(C)CC)C(C)O)C(C)CC)C(C)CC)C(C)CC)C(C)O (stereo partly drawn) [apraglutide, L-histidyl-glycyl-L-aspartyl-glycyl-L-seryl-L-phenylalanyl-L-seryl-L-aspartyl-L-glutamyl-L-norleucyl-D-phenylalanyl-L-threonyl-Lisoleucyl-L-leucyl-L-aspartyl-L-leucyl-L-leucyl-L-alanyl-L-alanyl-L-arginyl-L-aspartyl-L-phenylalanyl-L-isoleucyl-L-asparaginyl-Ltryptophanyl-L-leucyl-L-isoleucyl-L-glutaminyl-L-threonyl-L-lysyl-L-isoleucyl-L-threonyl-Laspartic acid amide] (H-HGDGSFSDE[Nle][dF][Thr(3ξ)][Ile(3ξ)]LDLLAARDF[Ile(3ξ)]NWL[Ile(3ξ)]Q[Thr(3ξ)]K[Ile(3ξ)][Thr(3ξ)]D-NH2)
Difference between mean Rmax over the whole trial and Rmax after last dose (1 mg): 0.1016 µg/mL
Bristol stool scale with zeroes set to missing, estimate of the difference (1 mg - 5 mg): 0.2
Bristol stool scale, estimate of the difference (1 mg - 5 mg): −0.1
Citrulline, estimate of the difference (1 mg - 5 mg): 0.9429 µg/mL
Weight, estimate of the difference (1 mg - 5 mg): -0.115 kg
Bristol stool scale with zeroes set to missing, estimate of the difference (1 mg - 10 mg): 0.1
Bristol stool scale, estimate of the difference (1 mg - 10 mg): 0.3
Citrulline, estimate of the difference (1 mg - 10 mg): 1.3198 µg/mL
Weight, estimate of the difference (1 mg - 10 mg): 0.419 kg
No stool in the past 24 hours, number of reports (1 mg group (2 subjects)): 6 times
Highest mean citrulline value following the first weekly SC dose (1 mg, after four days): 6.3920 µg/mL
Citrulline Rtmax, median (1 mg, after last dose 6): 2.0 days
Citrulline Rpre-dose, arithmetic mean ± SD (1 mg, last dose 1): 5.8075 ± 1.3328 µg/mL
Citrulline Rpre-dose, geometric mean (1 mg, last dose 1): 5.6723 µg/mL
Citrulline Rpre-dose, arithmetic mean ± SD (1 mg, last dose 2): 6.2605 ± 1.2331 µg/mL
Citrulline Rpre-dose, geometric mean (1 mg, last dose 2): 6.1526 µg/mL
Citrulline Rpre-dose, arithmetic mean ± SD (1 mg, last dose 3): 6.4913 ± 1.8297 µg/mL
Citrulline Rpre-dose, geometric mean (1 mg, last dose 3): 6.2752 µg/mL
Citrulline Rpre-dose, arithmetic mean ± SD (1 mg, last dose 4): 6.0050 ± 1.5790 µg/mL
Citrulline Rpre-dose, geometric mean (1 mg, last dose 4): 5.8213 µg/mL
Citrulline Rpre-dose, arithmetic mean ± SD (1 mg, last dose 5): 6.4128 ± 1.8032 µg/mL
Citrulline Rpre-dose, geometric mean (1 mg, last dose 5): 6.2097 µg/mL
Citrulline Rmax, arithmetic mean ± SD (1 mg, last dose 6): 7.1702 µg/mL
Citrulline Rmax, geometric mean (1 mg, last dose 6): 7.0069 µg/mL
Citrulline Rpre-dose, arithmetic mean ± SD (1 mg, last dose 6): 6.3120 ± 1.6694 µg/mL
Citrulline Rpre-dose, geometric mean (1 mg, last dose 6): 6.1166 µg/mL
Citrulline Rmax, arithmetic mean ± SD (1 mg, last dose 6, listed as Apraglutide): 7.1702 ± 1.6611 µg/mL
Citrulline Rmax, arithmetic mean ± SD [1]: 7.2718 ± 1.6959 µg/mL
Citrulline Rmax, geometric mean [1]: 7.1036 µg/mL
Citrulline Rtmax, median (1 mg, whole trial period, from first dose): 35.9 days
Difference between mean Rmax over the whole trial and Rmax after last dose (5 mg): 0.0973 µg/mL
Bristol stool scale with zeroes set to missing, estimate of the difference (5 mg - 10 mg): −0.0
Bristol stool scale, estimate of the difference (5 mg - 10 mg): 0.5
Citrulline, estimate of the difference (5 mg - 10 mg): 0.3769 µg/mL
Weight, estimate of the difference (5 mg - 10 mg): 0.534 kg
No stool in the past 24 hours, number of reports (5 mg group (4 subjects)): 13 times
Highest mean citrulline value following the first weekly SC dose (5 mg, after four days): 7.1933 µg/mL
Citrulline Rtmax, median (5 mg, after last dose 6): 3.9 days
Citrulline Rpre-dose, arithmetic mean ± SD (5 mg, last dose 1): 6.7695 ± 1.5288 µg/mL
Citrulline Rpre-dose, geometric mean (5 mg, last dose 1): 6.5967 µg/mL
Citrulline Rpre-dose, arithmetic mean ± SD (5 mg, last dose 2): 7.0082 ± 1.1330 µg/mL
Citrulline Rpre-dose, geometric mean (5 mg, last dose 2): 6.9208 µg/mL
Citrulline Rpre-dose, arithmetic mean ± SD (5 mg, last dose 3): 6.6155 ± 1.2790 µg/mL
Citrulline Rpre-dose, geometric mean (5 mg, last dose 3): 6.5109 µg/mL
Citrulline Rpre-dose, arithmetic mean ± SD (5 mg, last dose 4): 6.6227 ± 1.2247 µg/mL
Citrulline Rpre-dose, geometric mean (5 mg, last dose 4): 6.5313 µg/mL
Citrulline Rpre-dose, arithmetic mean ± SD (5 mg, last dose 5): 6.8307 ± 1.2369 µg/mL
Citrulline Rpre-dose, geometric mean (5 mg, last dose 5): 6.7248 µg/mL
Citrulline Rmax, arithmetic mean ± SD (5 mg, last dose 6): 8.1577 µg/mL
Citrulline Rmax, geometric mean (5 mg, last dose 6): 8.0024 µg/mL
Citrulline Rpre-dose, arithmetic mean ± SD (5 mg, last dose 6): 7.2498 ± 1.2461 µg/mL
Citrulline Rpre-dose, geometric mean (5 mg, last dose 6): 7.1475 µg/mL
Citrulline Rmax, arithmetic mean ± SD (5 mg, last dose 6, listed as Apraglutide): 8.1577 ± 1.7108 µg/mL
Citrulline Rmax, arithmetic mean ± SD [2]: 8.2550 ± 1.7807 µg/mL
Citrulline Rmax, geometric mean [2]: 8.0870 µg/mL
Citrulline Rtmax, median (5 mg, whole trial period, from first dose): 38.9 days
Difference between mean Rmax over the whole trial and Rmax after last dose (10 mg): 0.0362 µg/mL
No stool in the past 24 hours, number of reports (10 mg group (1 subject)): 1 time
Steady-state contrast: mean citrulline Rpre-dose at week 6 against week 5 (10 mg, Helmert's approach): 0.8720
Highest mean citrulline value following the first weekly SC dose (10 mg, after 7 days): 7.8487 µg/mL
Citrulline Rtmax, median (10 mg, after last dose 6 (N = 5)): 3.9 days
Citrulline Rpre-dose, arithmetic mean ± SD (10 mg, last dose 1): 7.8487 ± 2.7273 µg/mL
Citrulline Rpre-dose, geometric mean (10 mg, last dose 1): 7.4048 µg/mL
Citrulline Rpre-dose, arithmetic mean ± SD (10 mg, last dose 2): 7.6058 ± 2.3210 µg/mL
Citrulline Rpre-dose, geometric mean (10 mg, last dose 2): 7.2438 µg/mL
Citrulline Rpre-dose, arithmetic mean ± SD (10 mg, last dose 3): 7.5180 ± 2.1369 µg/mL
Citrulline Rpre-dose, geometric mean (10 mg, last dose 3): 7.2331 µg/mL
Citrulline Rpre-dose, arithmetic mean ± SD (10 mg, last dose 4 (N = 5)): 7.2060 ± 2.5488 µg/mL
Citrulline Rpre-dose, geometric mean (10 mg, last dose 4 (N = 5)): 6.8103 µg/mL
Citrulline Rpre-dose, arithmetic mean ± SD (10 mg, last dose 5 (N = 5)): 7.1994 ± 2.5111 µg/mL
Citrulline Rpre-dose, geometric mean (10 mg, last dose 5 (N = 5)): 6.7908 µg/mL
Citrulline Rmax, arithmetic mean ± SD (10 mg, last dose 6 (N = 5)): 8.7254 µg/mL
Citrulline Rmax, geometric mean (10 mg, last dose 6 (N = 5)): 8.2533 µg/mL
Citrulline Rpre-dose, arithmetic mean ± SD (10 mg, last dose 6 (N = 5)): 8.0714 ± 3.0514 µg/mL
Citrulline Rpre-dose, geometric mean (10 mg, last dose 6 (N = 5)): 7.5618 µg/mL
Citrulline Rmax, arithmetic mean ± SD (10 mg, last dose 6 (N = 5), listed as Apraglutide): 8.7254 ± 3.0145 µg/mL
Citrulline Rmax, arithmetic mean ± SD [3]: 8.7616 ± 2.9900 µg/mL
Citrulline Rmax, geometric mean [3]: 8.2953 µg/mL
Citrulline Rt1/2, individual subjects (10 mg, two subjects): 6.5 days and 11.0 days
Citrulline Rtmax, median (10 mg, whole trial period, from first dose (N = 5)): 36.9 days
Time after first dose at which increases in citrulline were observed (1, 5 or 10 mg): 2 days
Bristol stool scale with zeroes set to missing, estimate of the difference (Placebo - 1 mg): −0.6
Bristol stool scale, estimate of the difference (Placebo - 1 mg): −0.9
Weight, estimate of the difference (Placebo - 1 mg): -0.750 kg
Citrulline, estimate of the difference (Placebo - 1 mg, 6 weekly SC doses): 0.3146 µg/mL
Citrulline, estimate of the difference (Placebo - 1 mg, 6 weekly SC doses, listed as Apraglutide): 0.31 [95% CI: −0.4371; μg/mL
Bristol stool scale with zeroes set to missing, estimate of the difference (Placebo - 5 mg): −0.4
Bristol stool scale, estimate of the difference (Placebo - 5 mg): −1.0
Weight, estimate of the difference (Placebo - 5 mg): -0.865 kg
Citrulline, estimate of the difference (Placebo - 5 mg, 6 weekly SC doses): 1.2574 µg/mL
Citrulline, estimate of the difference (Placebo - 5 mg, 6 weekly SC doses, listed as Apraglutide): 1.26 [95% CI: 0.5037; μg/mL
Bristol stool scale with zeroes set to missing, estimate of the difference (Placebo - 10 mg): −0.5
Bristol stool scale, estimate of the difference (Placebo - 10 mg): −0.6
Weight, estimate of the difference (Placebo - 10 mg): -0.331 kg
Citrulline, estimate of the difference (Placebo - 10 mg, 6 weekly SC doses): 1.6343 µg/mL
Citrulline, estimate of the difference (Placebo - 10 mg, 6 weekly SC doses, listed as Apraglutide): 1.63 [95% CI: 0.8809; μg/mL
Variability in citrulline Rmax explained by AUCtau (R squared) (week 6): 26%
Increase of maximum citrulline response per 100 d*ng/mL increase in AUCtau (week 6, regression line): 390 ng/mL
